{"source": "ChEMBL document CHEMBL3616469", "about": "“Synthesis, electronic properties, antioxidant and antibacterial activity of some new benzimidazoles” (Bioorg Med Chem, 2015)", "note": "The source made the active and inactive calls. No cut-off for these calls is given here."}
{"tested_on": "Staphylococcus aureus", "experiment": "Antibacterial activity against Staphylococcus aureus ATCC 6538 by broth microdilution method", "type": "functional"}
{"smiles": "CCOC(=O)Cn1c(=N)n(CC(=O)OCC)c2cc(C)ccc21", "MIC": "inactive"}
{"smiles": "Cc1ccc2c(c1)n(CCCc1ccccc1)c(=N)n2CCCc1ccccc1", "MIC": "16 µg/mL"}
{"smiles": "CCOC(=O)Cn1c(=N)n(CC(=O)OCC)c2cc(C(=O)c3ccccc3)ccc21", "MIC": "inactive"}
{"smiles": "C[C@H]1c2cccc(O)c2C(=O)C2=C(O)[C@]3(O)C(=O)C(C(N)=O)=C(O)[C@@H](N(C)C)[C@@H]3[C@@H](O)[C@@H]21.O", "note": "[DOXYCYCLINE]", "MIC": "0.78 µg/mL"}
{"smiles": "N=c1n(CC(=O)c2ccccc2)c2ccc([N+](=O)[O-])cc2n1CC(=O)c1ccccc1", "MIC": "inactive"}
{"smiles": "Cc1ccc2c(c1)n(CC(=O)c1ccccc1)c(=N)n2CC(=O)c1ccccc1", "MIC": "500 µg/mL"}
{"tested_on": "Bacillus spizizenii", "experiment": "Antibacterial activity against Bacillus subtilis ATCC 6633 by broth microdilution method", "type": "functional"}
{"smiles": "CCOC(=O)Cn1c(=N)n(CC(=O)OCC)c2cc(C)ccc21", "MIC": "inactive"}
{"smiles": "Cc1ccc2c(c1)n(CCCc1ccccc1)c(=N)n2CCCc1ccccc1", "MIC": "125 µg/mL"}
{"smiles": "CCOC(=O)Cn1c(=N)n(CC(=O)OCC)c2cc(C(=O)c3ccccc3)ccc21", "MIC": "inactive"}
{"smiles": "C[C@H]1c2cccc(O)c2C(=O)C2=C(O)[C@]3(O)C(=O)C(C(N)=O)=C(O)[C@@H](N(C)C)[C@@H]3[C@@H](O)[C@@H]21.O", "note": "[DOXYCYCLINE]", "MIC": "1.56 µg/mL"}
{"smiles": "N=c1n(CC(=O)c2ccccc2)c2ccc([N+](=O)[O-])cc2n1CC(=O)c1ccccc1", "MIC": "1000 µg/mL"}
{"smiles": "Cc1ccc2c(c1)n(CC(=O)c1ccccc1)c(=N)n2CC(=O)c1ccccc1", "MIC": "500 µg/mL"}
{"tested_on": "Salmonella enterica subsp. enterica serovar Abony", "experiment": "Antibacterial activity against Salmonella abony NCTC 6017 by broth microdilution method", "type": "functional"}
{"smiles": "CCOC(=O)Cn1c(=N)n(CC(=O)OCC)c2cc(C)ccc21", "MIC": "inactive"}
{"smiles": "Cc1ccc2c(c1)n(CCCc1ccccc1)c(=N)n2CCCc1ccccc1", "MIC": "500 µg/mL"}
{"smiles": "CCOC(=O)Cn1c(=N)n(CC(=O)OCC)c2cc(C(=O)c3ccccc3)ccc21", "MIC": "inactive"}
{"smiles": "C[C@H]1c2cccc(O)c2C(=O)C2=C(O)[C@]3(O)C(=O)C(C(N)=O)=C(O)[C@@H](N(C)C)[C@@H]3[C@@H](O)[C@@H]21.O", "note": "[DOXYCYCLINE]", "MIC": "6.25 µg/mL"}
{"smiles": "N=c1n(CC(=O)c2ccccc2)c2ccc([N+](=O)[O-])cc2n1CC(=O)c1ccccc1", "MIC": "inactive"}
{"smiles": "Cc1ccc2c(c1)n(CC(=O)c1ccccc1)c(=N)n2CC(=O)c1ccccc1", "MIC": "inactive"}
{"tested_on": "not listed separately", "experiment": "Antioxidant activity assessed as inhibition of AAPH-induced lipid peroxidation at 200 ug/ml after 3 hrs by TBA-MDA test", "type": "physicochemical", "units": {"inhibition (INH)": "%"}}
{"smiles": "Cc1c(C)c2c(c(C)c1O)CCC(C)(C(=O)O)O2", "note": "(stereo unspecified) [TROLOX]", "inhibition (INH)": 85.61}
{"smiles": "COc1ccccc1/C=c1\\sc2nc3cc(C(=O)c4ccccc4)ccc3n2c1=O", "inhibition (INH)": 80.35}
{"smiles": "CCOC(=O)Cn1c(=N)n(CC(=O)OCC)c2cc(C)ccc21", "inhibition (INH)": 55.87}
{"smiles": "Cc1ccc2c(c1)n(CCCc1ccccc1)c(=N)n2CCCc1ccccc1", "inhibition (INH)": 62.15}
{"smiles": "CCOC(=O)Cn1c(=N)n(CC(=O)OCC)c2cc(C(=O)c3ccccc3)ccc21", "inhibition (INH)": 74.04}
{"smiles": "O=C1O[C@H]([C@@H](O)CO)C(O)=C1O", "note": "[ASCORBIC ACID]", "inhibition (INH)": 99.9}
{"smiles": "N=c1n(CC(=O)c2ccccc2)c2ccc([N+](=O)[O-])cc2n1CC(=O)c1ccccc1", "inhibition (INH)": 23.43}
{"smiles": "O=C(c1ccccc1)c1ccc2c(c1)nc1s/c(=C\\c3ccc4c(c3)OCO4)c(=O)n12", "inhibition (INH)": 60.8}
{"smiles": "Cc1ccc2c(c1)n(CC(=O)c1ccccc1)c(=N)n2CC(=O)c1ccccc1", "inhibition (INH)": 39.26}
{"smiles": "O=C(c1ccccc1)c1ccc2c(c1)nc1s/c(=C\\c3ccccc3F)c(=O)n12", "inhibition (INH)": 75.76}
{"smiles": "O=c1c(O)c(-c2ccc(O)c(O)c2)oc2cc(O)cc(O)c12", "note": "[QUERCETIN]", "inhibition (INH)": 91.12}
{"smiles": "O=C(O)/C=C/c1ccc(O)c(O)c1", "note": "[CAFFEIC ACID]", "inhibition (INH)": 99.98}
{"smiles": "O=C(c1ccccc1)c1ccc2c(c1)nc1s/c(=C\\c3ccc(F)cc3)c(=O)n12", "inhibition (INH)": 90.76}
{"tested_on": "Pseudomonas aeruginosa", "experiment": "Antibacterial activity against Pseudomonas aeruginosa ATCC 9027 by broth microdilution method", "type": "functional"}
{"smiles": "CCOC(=O)Cn1c(=N)n(CC(=O)OCC)c2cc(C)ccc21", "MIC": "inactive"}
{"smiles": "Cc1ccc2c(c1)n(CCCc1ccccc1)c(=N)n2CCCc1ccccc1", "MIC": "inactive"}
{"smiles": "CCOC(=O)Cn1c(=N)n(CC(=O)OCC)c2cc(C(=O)c3ccccc3)ccc21", "MIC": "inactive"}
{"smiles": "C[C@H]1c2cccc(O)c2C(=O)C2=C(O)[C@]3(O)C(=O)C(C(N)=O)=C(O)[C@@H](N(C)C)[C@@H]3[C@@H](O)[C@@H]21.O", "note": "[DOXYCYCLINE]", "MIC": "12.5 µg/mL"}
{"smiles": "N=c1n(CC(=O)c2ccccc2)c2ccc([N+](=O)[O-])cc2n1CC(=O)c1ccccc1", "MIC": "inactive"}
{"smiles": "Cc1ccc2c(c1)n(CC(=O)c1ccccc1)c(=N)n2CC(=O)c1ccccc1", "MIC": "inactive"}
{"tested_on": "not listed separately", "experiment": "Antioxidant activity assessed as inhibition of AAPH-induced lipid peroxidation after 3 hrs by TBA-MDA test", "type": "physicochemical", "units": {"IC50": "µg/mL"}}
{"smiles": "Cc1c(C)c2c(c(C)c1O)CCC(C)(C(=O)O)O2", "note": "(stereo unspecified) [TROLOX]", "IC50": 7.74}
{"smiles": "COc1ccccc1/C=c1\\sc2nc3cc(C(=O)c4ccccc4)ccc3n2c1=O", "IC50": 74.11}
{"smiles": "CCOC(=O)Cn1c(=N)n(CC(=O)OCC)c2cc(C)ccc21", "IC50": 176.58}
{"smiles": "Cc1ccc2c(c1)n(CCCc1ccccc1)c(=N)n2CCCc1ccccc1", "IC50": 144.88}
{"smiles": "CCOC(=O)Cn1c(=N)n(CC(=O)OCC)c2cc(C(=O)c3ccccc3)ccc21", "IC50": 141.89}
{"smiles": "O=C1O[C@H]([C@@H](O)CO)C(O)=C1O", "note": "[ASCORBIC ACID]", "IC50": 9.12}
{"smiles": "N=c1n(CC(=O)c2ccccc2)c2ccc([N+](=O)[O-])cc2n1CC(=O)c1ccccc1", "IC50": "> 200"}
{"smiles": "O=C(c1ccccc1)c1ccc2c(c1)nc1s/c(=C\\c3ccc4c(c3)OCO4)c(=O)n12", "IC50": 85.51}
{"smiles": "Cc1ccc2c(c1)n(CC(=O)c1ccccc1)c(=N)n2CC(=O)c1ccccc1", "IC50": "> 200"}
{"smiles": "O=C(c1ccccc1)c1ccc2c(c1)nc1s/c(=C\\c3ccccc3F)c(=O)n12", "IC50": 86.97}
{"smiles": "O=c1c(O)c(-c2ccc(O)c(O)c2)oc2cc(O)cc(O)c12", "note": "[QUERCETIN]", "IC50": 10.47}
{"smiles": "O=C(O)/C=C/c1ccc(O)c(O)c1", "note": "[CAFFEIC ACID]", "IC50": 3.79}
{"smiles": "O=C(c1ccccc1)c1ccc2c(c1)nc1s/c(=C\\c3ccc(F)cc3)c(=O)n12", "IC50": 53.7}
{"tested_on": "Escherichia coli", "experiment": "Antibacterial activity against Escherichia coli ATCC 8739 by broth microdilution method", "type": "functional"}
{"smiles": "CCOC(=O)Cn1c(=N)n(CC(=O)OCC)c2cc(C)ccc21", "MIC": "inactive"}
{"smiles": "Cc1ccc2c(c1)n(CCCc1ccccc1)c(=N)n2CCCc1ccccc1", "MIC": "500 µg/mL"}
{"smiles": "CCOC(=O)Cn1c(=N)n(CC(=O)OCC)c2cc(C(=O)c3ccccc3)ccc21", "MIC": "inactive"}
{"smiles": "C[C@H]1c2cccc(O)c2C(=O)C2=C(O)[C@]3(O)C(=O)C(C(N)=O)=C(O)[C@@H](N(C)C)[C@@H]3[C@@H](O)[C@@H]21.O", "note": "[DOXYCYCLINE]", "MIC": "0.78 µg/mL"}
{"smiles": "N=c1n(CC(=O)c2ccccc2)c2ccc([N+](=O)[O-])cc2n1CC(=O)c1ccccc1", "MIC": "inactive"}
{"smiles": "Cc1ccc2c(c1)n(CC(=O)c1ccccc1)c(=N)n2CC(=O)c1ccccc1", "MIC": "inactive"}
